The nature of this data set: cardiovascular and respiratory function in anesthetized dogs (safety pharmacology). The format is in vivo. The settings on record: anesthetized Beagle dogs, three ascending doses 400, 800 and 1,200 mg/kg/day, infusion through the jugular vein. The protocol: The pharmacological properties of 3-(3,4-dimethoxy-phenyl)-3-(1-oxo-1,3-dihydro-isoindol-2-yl)-propionamide, including activity comparisons with thalidomide, are characterized in in vitro studies. Studies examine the effects of 3-(3,4-dimethoxy-phenyl)-3-(1-oxo-1,3-dihydro-isoindol-2-yl)-propionamide on the production of various cytokines. In addition, a safety pharmacology study of 3-(3,4-dimethoxy-phenyl)-3-(1-oxo-1,3-dihydro-isoindol-2-yl)-propionamide is conducted in dogs and the effects of the compound on ECG parameters are examined further as part of three repeat-dose toxicity studies in primates.
The effects of 3-(3,4-dimethoxy-phenyl)-3-(1-oxo-1,3-dihydro-isoindol-2-yl)-propionamide on cardiovascular and respiratory function are investigated in anesthetized dogs. Two groups of Beagle dogs (2/sex/group) are used. One group receives three doses of vehicle only and the other receives three ascending doses of 3-(3,4-dimethoxy-phenyl)-3-(1-oxo-1,3-dihydro-isoindol-2-yl)-propionamide (400, 800, and 1,200 mg/kg/day). In all cases, doses of 3-(3,4-dimethoxy-phenyl)-3-(1-oxo-1,3-dihydro-isoindol-2-yl)-propionamide or vehicle are successively administered via infusion through the jugular vein separated by intervals of at least 30 minutes. […]

Turning to `COc1ccc(C(CC(N)=O)N2Cc3ccccc3C2=O)cc1OC` (stereo not shown) [3-(3,4-Dimethoxy-phenyl)-3-(1-oxo-1,3-dihydro-isoindol-2-yl)-propionamide], the “cardiovascular and respiratory changes compared to the vehicle control group” value is given as “minimal”.

Source of the values: patent publication US20090010886A1, “Method for the Treatment of Myeloproliferative Diseases Using(+)-2-[1-(3-Ethoxy-4-Methoxyphenyl)-2- Methylsulfonylethyl]-4- Acetylaminoisoindoline-1,3- Dione” (CELGENE CORPORATION, priority 2004, published 2009).
